Values quoted from earlier work in EP1750675B1, “STABLE ORAL PHARMACEUTICAL COMPOSITIONS OF BUP[…] SALT THEREOF” (Galephar M/F, priority 2004, dated 2005).
Structures can show the parent of a compound that is named as a salt. Where two headings read alike, the source gives them in different places.

Legend:
[1] = 20°C
[2] = opioid agonist/antagonist

SMILES	stability (at high temperatures (up to 120°C))	stability (in acid and alkaline conditions)	stability (in neutral solutions (pH 5-7))	solubility ([1]; in cyclohexane)	solubility ([1]; in ethanol)	solubility ([1]; in glacial acetic acid)	solubility ([1]; in water)	potency relative to morphine [2]
CO[C@]12CC[C@@]3(C[C@@H]1[C@](C)(O)C(C)(C)C)[C@H]1Cc4ccc(O)c5c4[C@@]3(CCN1CC1CC1)[C@H]2O5 [buprenorphine hydrochloride, Buprenorphine hydrochloride]	stable	significant degradation	stable	~0.02 mg/mL	~42 mg/mL	more than 500 mg/ml	about 20 mg/ml	–
CO[C@]12CC[C@@]3(C[C@@H]1[C@](C)(O)C(C)(C)C)[C@H]1Cc4ccc(O)c5c4[C@@]3(CCN1CC1CC1)[C@H]2O5 [Buprenorphine]	–	–	–	–	–	–	–	about forty times as potent as morphine
